Measurements reported in patent US20240360177A1, “PEPTIDES WITH ANTIMICROBIAL ACTIVITIES” (priority 2021, published 2024).
Converted amounts (≈) assume the structure as drawn. Read-outs that look alike come from different tables or passages of the source. Non-standard residues stand in square brackets, D forms with d. Residues, ends and D or L forms follow the SMILES beside them. Aoc = NCCCCCCCC(=O)O; βAla = NCCC(=O)O

Key:
[1] = tested on: Rhizopus arrhizus; conditions: 24 h
[2] = tested on: Lomentospora prolificans
[3] = Acute toxicity in CD-1 mice; conditions: both sexes, mouse, in vivo
Description: Acute toxicity and subacute toxicity of ACPs were tested in CD-1 mice. In the acute toxicity study, groups of CD-1 male or female mice were administered single intravenous or intraperitoneal escalating doses (n=2-3 per dose) of the peptides dissolved in normal saline for injection or in phosphate buffered saline. The intravenous dose was administered via tail vein with a slow push over 15-20 seconds. Doses were escalated based on tolerability.

[4] = tested on: Scedosporium spp.; conditions: 72 h
[5] = tested on: C. auris; conditions: 24 h
[6] = tested on: Fusarium spp.; conditions: 48 h
[7] = tested on: C. parapsilosis; conditions: 24 h
[8] = tested on: Coccidioides species; conditions: 48-72 hrs, >50% inhibition
[9] = tested on: C. krusei; conditions: 24 h
[10] = tested on: C. dubliniensis; conditions: 24 h
[11] = in vitro; conditions: human, EC50 cytotoxicity in HepG2, intracellular ATP assay
[12] = tested on: C. neoformans; conditions: 72 h
[13] = tested on: C. glabrata; conditions: 24 h
[14] = tested on: Paecilomyces variotii; conditions: 48 h
[15] = in vitro; conditions: human, human serum, full strength
[16] = tested on: C. gattii; conditions: 72 h
[17] = tested on: C. tropicalis; conditions: 24 h
[18] = tested on: C. albicans; conditions: 24 h
[19] = tested on: Candida spp.
[20] = tested on: Escherichia coli ATCC 25922; format: cell-based
[21] = tested on: Pseudomonas aeruginosa ATCC 27853; format: cell-based
[22] = tested on: Staphylococcus aureus ATCC 29213; format: cell-based
[23] = mice
[24] = Subacute toxicity in CD-1 mice; format: in vivo; conditions: daily IP for 7 days
Description: In the subacute toxicity study, groups of CD-1 male or female mice were administered seven consecutive daily intraperitoneal doses (n=3 per dose) of the peptides (SEQ ID NO: 7, SEQ ID NO: 29, SEQ ID NO: 53) dissolved in normal saline for injection. Each peptide was evaluated at 2 to 3 dose levels ranging from 2.5 to 7.5 mg/kg/day. Mice were weighed at least once daily and observed at least twice daily for any abnormal findings and determination of overall health. At 24 hrs after the last dose, mice were humanely euthanized, with blood collected through cardiac puncture into K2EDTA microtainers to assess hematological parameters. All three peptides were tolerated at the highest dose evaluated (7.5 mg/kg/day) for 7 days.

[25] = single IP dose, read-out: Tolerated single intraperitoneal dose
[26] = single IV dose via tail vein, read-out: Tolerated single intravenous dose

SMILES | MIC Range Rhizopus arrhizus [1] [µg/mL] | MIC Range Lomentospora prolificans [2] [µg/mL] | MTD [3, 25] [mg/kg] | MTD [3, 26] [mg/kg] | MIC Range Scedosporium spp. [4] [µg/mL] | MIC C. auris [5] [µg/mL] | MIC Range Fusarium spp. [6] [µg/mL] | MIC C. parapsilosis [7] [µg/mL] | MIC Range Coccidioides species ([8]; N = 3 strains) [µg/mL] | MIC C. krusei [9] [µg/mL] | MIC C. dubliniensis [10] [µg/mL] | EC50 [11] [µg/mL] | MIC C. neoformans [12] [µg/mL] | MIC C. glabrata [13] [µg/mL] | MIC Range Paecilomyces variotii [14] [µg/mL] | remaining at 2 h, 5 μM [15] [%] | MIC C. gattii [16] [µg/mL] | MIC C. tropicalis [17] [µg/mL] | MIC C. albicans [18] [µg/mL] | MIC50 Candida species [19] [µg/mL] | also measured
N=C(N)NCCC[C@@H](N)C(=O)N[C@@H](CCCNC(=N)N)C(=O)N[C@H](CCCNC(=N)N)C(=O)NCCC(=O)N[C@H](CCCNC(=N)N)C(=O)N[C@@H](CCCNC(=N)N)C(=O)N[C@H](CCCNC(=N)N)C(=O)NCCC(=O)N[C@H](CCCNC(=N)N)C(=O)N[C@@H](CCCNC(=N)N)C(=O)N[C@H](CCCNC(=N)N)C(=O)N[C@@H](CCCNC(=N)N)C(=O)NCCC(=O)N[C@H](CCCNC(=N)N)C(=O)N[C@@H](CCCNC(=N)N)C(=O)N[C@H](CCCNC(=N)N)C(=O)N[C@@H](CCCNC(=N)N)C(=O)O [SEQ ID NO: 8, rRr-(Apr)-rRr-(Apr)-rRrR-(Apr)-rRrR] (H-[dR]R[dR][βAla][dR]R[dR][βAla][dR]R[dR]R[βAla][dR]R[dR]R-OH) | 2 to 32 | ≤0.12 | 10 to 15 | 5 to 7.5 | ≤0.12 | 4 (≈ 1.65 µM) | 0.25 to 0.5 | 0.25 (≈ 0.103 µM) | 0.25 to 0.5 | 0.5 (≈ 0.207 µM) | 0.25 (≈ 0.103 µM) | > 300 | 0.5 (≈ 0.207 µM) | 0.5 (≈ 0.207 µM) | 0.25 (≈ 0.103 µM) | ~100 | 0.25 (≈ 0.103 µM) | 0.25 (≈ 0.103 µM) | 0.5 (≈ 0.207 µM) |  | 
N=C(N)NCCC[C@H](NC(=O)[C@H](CCCNC(=N)N)NC(=O)[C@H](CCCNC(=N)N)NC(=O)[C@H](CCCNC(=N)N)NC(=O)CCNC(=O)[C@H](CCCNC(=N)N)NC(=O)[C@H](CCCNC(=N)N)NC(=O)[C@H](CCCNC(=N)N)NC(=O)[C@H](CCCNC(=N)N)NC(=O)CCNC(=O)[C@H](CCCNC(=N)N)NC(=O)[C@H](CCCNC(=N)N)NC(=O)[C@H](CCCNC(=N)N)NC(=O)CCNC(=O)[C@H](CCCNC(=N)N)NC(=O)[C@H](CCCNC(=N)N)NC(=O)[C@@H](N)CCCNC(=N)N)C(N)=O [SEQ ID NO: 13, RRR-(Apr)-RRR-(Apr)-RRRR-(Apr)-RRRR-NH2] (H-RRR[βAla]RRR[βAla]RRRR[βAla]RRRR-NH2) |  |  |  |  | 0.25 (≈ 0.103 µM) | 4 (≈ 1.66 µM) | 0.5 to 2 | 0.25 (≈ 0.103 µM) |  | 2 (≈ 0.828 µM) | 2 (≈ 0.828 µM) | > 300 | 1 (≈ 0.414 µM) | 32 (≈ 13.2 µM) |  | ~40 | 0.5 (≈ 0.207 µM) | 0.5 (≈ 0.207 µM) | 8 (≈ 3.31 µM) | 4 (≈ 1.66 µM) | MIC90 Candida species [19]: 16 µg/mL (≈ 6.62 µM)
N=C(N)NCCC[C@H](NC(=O)CCNC(=O)[C@H](CCCNC(=N)N)NC(=O)[C@@H](CCCNC(=N)N)NC(=O)[C@@H](N)CCCNC(=N)N)C(=O)N[C@H](CCCNC(=N)N)C(=O)N[C@@H](CCCNC(=N)N)C(=O)NCCC(=O)N[C@@H](CCCNC(=N)N)C(=O)N[C@H](CCCNC(=N)N)C(=O)N[C@@H](CCCNC(=N)N)C(=O)N[C@H](CCCNC(=N)N)C(=O)NCCC(=O)N[C@@H](CCCNC(=N)N)C(=O)N[C@H](CCCNC(=N)N)C(=O)N[C@@H](CCCNC(=N)N)C(=O)N[C@H](CCCNC(=N)N)C(N)=O [SEQ ID NO: 15, RrR-(Apr)-RrR-(Apr)-RrRr-(Apr)-RrRr-NH2] (H-R[dR]R[βAla]R[dR]R[βAla]R[dR]R[dR][βAla]R[dR]R[dR]-NH2) |  |  |  |  | 0.25 to 0.5 | 0.5 (≈ 0.207 µM) | 0.12 to 0.25 | 0.25 (≈ 0.103 µM) |  | 0.5 (≈ 0.207 µM) | 0.5 (≈ 0.207 µM) | > 300 | 0.5 (≈ 0.207 µM) | 0.5 (≈ 0.207 µM) |  | ~100 | 0.25 (≈ 0.103 µM) | 0.25 (≈ 0.103 µM) | 1 (≈ 0.414 µM) | 0.5 (≈ 0.207 µM) | MIC90 Candida species [19]: 1 µg/mL (≈ 0.414 µM); MIC Escherichia coli [20]: 32 µg/mL (≈ 13.2 µM); MIC Pseudomonas aeruginosa [21]: 64 µg/mL (≈ 26.5 µM); MIC Staphylococcus aureus [22]: 16 µg/mL (≈ 6.62 µM)
N=C(N)NCCC[C@@H](N)C(=O)N[C@@H](CCCNC(=N)N)C(=O)N[C@H](CCCNC(=N)N)C(=O)NCCC(=O)N[C@H](CCCNC(=N)N)C(=O)N[C@@H](CCCNC(=N)N)C(=O)N[C@H](CCCNC(=N)N)C(=O)NCCC(=O)N[C@H](CCCNC(=N)N)C(=O)N[C@@H](CCCNC(=N)N)C(=O)N[C@H](CCCNC(=N)N)C(=O)N[C@@H](CCCNC(=N)N)C(=O)NCCC(=O)N[C@H](CCCNC(=N)N)C(=O)N[C@@H](CCCNC(=N)N)C(=O)N[C@H](CCCNC(=N)N)C(=O)N[C@@H](CCCNC(=N)N)C(=O)NCCCCCCCC(=O)O [SEQ ID NO: 16, rRr-(Apr)-rRr-(Apr)-rRrR-(Apr)-rRrR-(Aoa)] (H-[dR]R[dR][βAla][dR]R[dR][βAla][dR]R[dR]R[βAla][dR]R[dR]R[Aoc]-OH) | 2 to 64 | 0.25 (≈ 0.0977 µM) | 10 to 15 | 5 to 7.5 |  | 0.5 (≈ 0.195 µM) | 0.25 to 1 | 0.5 (≈ 0.195 µM) | 0.5 (≈ 0.195 µM) | 0.5 (≈ 0.195 µM) | 0.5 (≈ 0.195 µM) | > 300 | 0.5 (≈ 0.195 µM) | 0.5 (≈ 0.195 µM) | 0.25 (≈ 0.0977 µM) |  | 0.25 (≈ 0.0977 µM) | 0.5 (≈ 0.195 µM) | 1 (≈ 0.391 µM) |  | 
N=C(N)NCCC[C@@H](N)C(=O)N[C@@H](CCCNC(=N)N)C(=O)N[C@H](CCCNC(=N)N)C(=O)NCCCCCCCC(=O)N[C@H](CCCNC(=N)N)C(=O)N[C@@H](CCCNC(=N)N)C(=O)N[C@H](CCCNC(=N)N)C(=O)NCCCCCCCC(=O)N[C@H](CCCNC(=N)N)C(=O)N[C@@H](CCCNC(=N)N)C(=O)N[C@H](CCCNC(=N)N)C(=O)N[C@@H](CCCNC(=N)N)C(=O)NCCCCCCCC(=O)N[C@H](CCCNC(=N)N)C(=O)N[C@@H](CCCNC(=N)N)C(=O)N[C@H](CCCNC(=N)N)C(=O)N[C@@H](CCCNC(=N)N)C(N)=O [SEQ ID NO: 29, rRr-(Aoa)-rRr-(Aoa)-rRrR-(Aoa)-rRrR-NH2] (H-[dR]R[dR][Aoc][dR]R[dR][Aoc][dR]R[dR]R[Aoc][dR]R[dR]R-NH2) |  | 0.5 (≈ 0.19 µM) |  |  | 0.5 (≈ 0.19 µM) | 0.5 (≈ 0.19 µM) | 0.5 (≈ 0.19 µM) | 0.5 (≈ 0.19 µM) |  | 0.5 (≈ 0.19 µM) | 0.5 (≈ 0.19 µM) | > 300 | 0.5 (≈ 0.19 µM) | 0.5 (≈ 0.19 µM) |  | ~100 | 0.5 (≈ 0.19 µM) | 0.5 (≈ 0.19 µM) | 1 (≈ 0.381 µM) |  | Kidney to Plasma Concentration Ratio Day 7 ([23]; 6 hrs post dose of 7.5 mg/kg IP once daily, Day 7, mean ± SD, n = 3): 361 ± 322; Kidney to Plasma Concentration Ratio Day 1 ([23]; 6 hrs post dose of 7.5 mg/kg IP, Day 1, mean ± SD, n = 3): 236 ± 233; Day 1 AUC ratio, kidney to plasma ([23]; IP 7.5 mg/kg, Day 1): 158; Tolerated dose (highest dose evaluated) [24]: 7.5 mg/kg/day; Clinical or hematological adverse effects ([24]; up to 7.5 mg/kg/day): No significant clinical or hematological adverse effects were observed; MIC Escherichia coli [20]: 16 µg/mL (≈ 6.09 µM); MIC Range Coccidioides species ([8]; N = 10 strains): 0.06 to 0.25 µg/mL; MIC Pseudomonas aeruginosa [21]: 32 µg/mL (≈ 12.2 µM); MIC Staphylococcus aureus [22]: 16 µg/mL (≈ 6.09 µM)
